Experimental data: patent publication US11597724B2, “Herbicidally active 3-phenylisoxazoline-5-carboxamides of tetrahydro and dihydrofuran carboxylic acids and esters” (Bayer Aktiengesellschaft, priority 2017, dated 2023)

Key:
Type in all cases: in vivo
Echinochloa crus-galli = experiment: Post-emergence herbicidal activity against ECHCG; conditions: Echinochloa crus-galli, 504 h, dosage 320 g/ha, rated about 3 weeks after treatment
Summary of the method: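 Greenhouse pot plants sprayed post-emergence at one-leaf stage (2-3 weeks after sowing) with WP or EC formulations, 0.5% additive, 600 l/ha water. Visual rating about 3 weeks later versus untreated controls: 100% = plants dead, 0% = like control.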

Avena fatua [1] = experiment: Post-emergence herbicidal activity against AVEFA; conditions: Avena fatua, 504 h, dosage 320 g/ha, rated about 3 weeks after treatment
Summary of the method: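 Greenhouse pots of sandy loam; plants sprayed at one-leaf stage, 2 to 3 weeks after sowing, with WP or EC formulations in water plus 0.5% additive at 600 l/ha. Activity rated visually after about 3 weeks against untreated controls (100% = plants dead, 0% = like control).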

Amaranthus retroflexus [2] = experiment: Post-emergence herbicidal activity against AMARE; conditions: Amaranthus retroflexus, 504 h, dosage 320 g/ha, rated about 3 weeks after treatment
Method: AMARE: Amaranthus retroflexus AVEFA: Avena fatua 2. Post-Emergence Herbicidal Action and Crop Plant Compatibility Seeds of monocotyledonous and dicotyledonous weeds and crop plants are placed in sandy loam in plastic or wood-fiber pots, covered with soil and cultivated in a greenhouse under controlled growth conditions. 2 to 3 weeks after sowing, the test plants are treated at the one-leaf stage. The compounds of the invention, formulated in the form of wettable powders (WP) or as emulsion concentrates (EC), are then sprayed onto the green parts of the plants as aqueous suspension or emulsion with addition of 0.5% additive at a water application rate of 600 l/ha (converted). After the test plants had been kept in the greenhouse under optimum growth conditions for about 3 weeks, the activity of the preparations is rated visually in comparison to untreated controls. For example, 100% activity=the plants have died, 0% activity=like control plants.

Polygonum convolvulus = experiment: Pre-emergence herbicidal activity against POLCO; conditions: Fallopia convolvulus, 504 h, dosage 80 g/ha
Text: (§1) 1. Pre-Emergence Herbicidal Action and Crop Plant Compatibility Seeds of monocotyledonous and dicotyledonous weed plants and crop plants are placed in plastic or wood fiber pots and covered with soil. The compounds of the invention, formulated in the form of wettable powders (WP) or as emulsion concentrates (EC), are then applied onto the surface of the covering soil as aqueous suspension or emulsion with addition of 0.5% additive at a water application rate of 600 l/ha (converted). After the treatment, the pots are placed in a greenhouse and kept under good growth conditions for the trial plants. After about 3 weeks, the effect of the preparations is scored visually in comparison with untreated controls as percentages. For example, 100% activity=the plants have died, 0% activity=like control plants. POLCO: Polygonum convolvulus SETVI: Setaria viridis

Avena fatua [3] = experiment: Pre-emergence herbicidal activity against AVEFA; conditions: Avena fatua, 504 h, dosage 80 g/ha, read-out: Pre-emergence herbicidal activity against AVEVA in % (AVEFA)
Text: as §1, with “AMARE: Amaranthus retroflexus AVEFA: Avena fatua” for “POLCO: Polygonum convolvulus SETVI: Setaria viridis”

Amaranthus retroflexus [4] = experiment: Pre-emergence herbicidal activity against AMARE; conditions: Amaranthus retroflexus, 504 h, dosage 80 g/ha
Text: as §1, with “AMARE: Amaranthus retroflexus AVEFA: Avena fatua” for “POLCO: Polygonum convolvulus SETVI: Setaria viridis”

Lolium rigidum = experiment: Pre-emergence herbicidal activity against LOLRI; conditions: Lolium rigidum, 504 h, dosage 80 g/ha
Text: as §1, with “LOLRI: Lolium rigidum PHBPU: Pharbitis purpurea” for “POLCO: Polygonum convolvulus SETVI: Setaria viridis”

| SMILES | pest or weed control at 320 g/ha (Echinochloa crus-galli) [%] | pest or weed control at 320 g/ha (Avena fatua [1]) [%] | pest or weed control at 320 g/ha (Amaranthus retroflexus [2]) [%] | pest or weed control at 80 g/ha (Polygonum convolvulus) [%] | pest or weed control at 80 g/ha (Avena fatua [3]) [%] | pest or weed control at 80 g/ha (Amaranthus retroflexus [4]) [%] | pest or weed control at 80 g/ha (Lolium rigidum) [%] |
| --- | --- | --- | --- | --- | --- | --- | --- |
| C=C[C@]1(C(=O)N[C@@H]2CO[C@@H](C(=O)OC)C2)CC(c2cc(F)cc(F)c2)=NO1 (mixture of isomers) [I-56, methyl trans-4-[[(5S)-3-(3,5-difluorophenyl)-5-vinyl-4H-isoxazole-5-carbonyl]amino]tetrahydrofuran-2-carboxylate] | 90 | 100 | 90 | – | – | – | – |
| COC(=O)[C@H]1C[C@@H](NC(=O)C2(C)CC(c3cc(F)cc(F)c3)=NO2)CO1 (relative stereo) [I-01, methyl cis-4-[[3-(3,5-difluorophenyl)-5-methyl-4H-isoxazole-5-carbonyl]amino]tetrahydrofuran-2-carboxylate] | 90 | 100 | 80 | 80 | 90 | – | – |
| COC(=O)C1COCC1NC(=O)C1(OC)CC(c2cc(F)cc(F)c2)=NO1 (stereo not drawn) [I-27, methyl 4-[[3-(3,5-difluorophenyl)-5-methoxy-4H-isoxazole-5-carbonyl]amino]tetrahydrofuran-3-carboxylate] | – | 90 | – | 80 | 90 | 90 | – |
| COC(=O)C1COCC1NC(=O)C1(C)CC(c2cc(F)cc(F)c2)=NO1 (stereo not drawn) [I-19, methyl 4-[[3-(3,5-difluorophenyl)-5-methyl-4H-isoxazole-5-carbonyl]amino]tetrahydrofuran-3-carboxylate] | 90 | 100 | 90 | 90 | 80 | – | – |
| COC(=O)C1COCC1NC(=O)C1(OC)CC(c2cc(Cl)cc(Cl)c2)=NO1 (stereo not drawn) [I-29, methyl 4-[[3-(3,5-dichlorophenyl)-5-methoxy-4H-isoxazole-5-carbonyl]amino]tetrahydrofuran-3-carboxylate] | 90 | 90 | – | 100 | 80 | 90 | – |
| CC(C)OC(=O)[C@H]1C[C@@H](NC(=O)C2(C)CC(c3cccc(F)c3)=NO2)CO1 (mixture of isomers) [I-32, isopropyl cis-4-[[(5RS)-3-(3-fluorophenyl)-5-methyl-4H-isoxazole-5-carbonyl]amino]tetrahydrofuran-2-carboxylate] | 90 | 100 | 80 | 90 | – | 90 | 100 |
| C=CC1(C(=O)N[C@H]2CO[C@@H](C(=O)OC)C2)CC(c2cccc(F)c2)=NO1 (relative stereo) [I-07, methyl cis-4-[[3-(3-fluorophenyl)-5-vinyl-4H-isoxazole-5-carbonyl]amino]tetrahydrofuran-2-carboxylate] | 80 | 90 | – | 80 | – | 90 | – |
| COC(=O)[C@H]1C[C@H](NC(=O)[C@@]2(C)CC(c3cc(F)cc(F)c3)=NO2)CO1 (mixture of isomers) [I-55, methyl trans-4-[[(5R)-3-(3,5-difluorophenyl)-5-methyl-4H-isoxazole-5-carbonyl]amino]tetrahydrofuran-2-carboxylate] | 90 | 90 | 80 | – | – | – | – |
| CC1(C(=O)N[C@H]2CO[C@@H](C(=O)OCc3ccccc3)C2)CC(c2cccc(F)c2)=NO1 (mixture of isomers) [I-34, benzyl cis-4-[[(5RS)-3-(3-fluorophenyl)-5-methyl-4H-isoxazole-5-carbonyl]amino]tetrahydrofuran-2-carboxylate] | 90 | 100 | 80 | 90 | 80 | – | 100 |
| COC(=O)[C@H]1C[C@@H](NC(=O)[C@@]2(C)CC(c3cc(F)cc(F)c3)=NO2)CO1 (mixture of isomers) [I-09, methyl cis-4-[[(5R)-3-(3,5-difluorophenyl)-5-methyl-4H-isoxazole-5-carbonyl]amino]tetrahydrofuran-2-carboxylate] | 80 | 90 | – | 100 | 90 | 80 | – |
| C=CC1(C(=O)NC2=C(C(=O)OCC)COC2)CC(c2cc(F)cc(F)c2)=NO1 (stereo not drawn) [I-23, ethyl 4-[[3-(3,5-difluorophenyl)-5-vinyl-4H-isoxazole-5-carbonyl]amino]-2,5-dihydrofuran-3-carboxylate] | 90 | 100 | 80 | – | 90 | 80 | – |
| C=CC1(C(=O)N[C@H]2CO[C@@H](C(=O)OC)C2)CC(c2cc(Cl)cc(Cl)c2)=NO1 (relative stereo) [I-03, methyl cis-4-[[3-(3,5-dichlorophenyl)-5-vinyl-4H-isoxazole-5-carbonyl]amino]tetrahydrofuran-2-carboxylate] | 80 | 80 | – | 80 | – | 80 | – |
| COC(=O)[C@H]1C[C@@H](NC(=O)C2(OC)CC(c3cc(C)cc(Br)c3)=NO2)CO1 (relative stereo) [I-08, methyl cis-4-[[3-(3-bromo-5-methylphenyl)-5-methoxy-4H-isoxazole-5-carbonyl]amino]tetrahydrofuran-2-carboxylate] | 90 | 100 | – | 80 | – | – | – |
| COC(=O)[C@H]1C[C@@H](NC(=O)C2(C)CC(c3cc(C)cc(Br)c3)=NO2)CO1 (relative stereo) [I-04, methyl cis-4-[[3-(3-bromo-5-methylphenyl)-5-methyl-4H-isoxazole-5-carbonyl]amino]tetrahydrofuran-2-carboxylate] | 90 | 100 | – | 90 | – | – | – |
| COC(=O)[C@H]1C[C@@H](NC(=O)C2(OC)CC(c3ccccc3)=NO2)CO1 (relative stereo) [I-14, methyl cis-4-[(5-methoxy-3-phenyl-4H-isoxazole-5-carbonyl)amino]tetrahydrofuran-2-carboxylate] | 80 | 100 | – | – | – | – | – |
| COC(=O)[C@H]1C[C@@H](NC(=O)C2(OC)CC(c3cc(F)cc(F)c3)=NO2)CO1 (relative stereo) [I-05, methyl cis-4-[[3-(3,5-difluorophenyl)-5-methoxy-4H-isoxazole-5-carbonyl]amino]tetrahydrofuran-2-carboxylate] | 90 | 100 | – | 80 | – | – | – |
